Source: paper PMC7822874, “Chemoprotective antimalarials identified through quantitative high-throughput screening of Plasmodium blood and liver stage parasites” (Scientific Reports, 2021)
Read-outs that look alike come from different tables or passages of the source.

Legend:
in vitro [1] = details: human, n = 1
[2] = system: Plasmodium falciparum Dd2 asexual blood stage parasites; test: microbe, parasite or virus in culture; parameters: species or system Plasmodium falciparum Dd2 in human erythrocytes; single determination (one 11-point concentration-response curve); details: Plasmodium falciparum, DD2, Erythrocyte, 72 h; read-out: AC50
in vitro [3] = details: human, HepG2-A16-CD81EGFP cells, uninfected
[4] = system: P. berghei-ANKA-GFP-LucCON liver stage parasites in HepG2-A16-CD81EGFP cells; test: P. berghei liver stage Pb-Luc assay, Method 1 (UCSD, 1536-well); format: cell-based, Plasmodium berghei; details: for activity at 1 µM / activity at 3 µM / AC50: Plasmodium berghei; for activity at 1 µM / activity at 3 µM: 48 h, average of 2 wells on a 1536 well plate; for activity at 1 µM: 1 uM (compounds provided at 10 mM); for activity at 3 µM: 3 uM (compounds provided at 10 mM)

Compound	CC50 at 48 h (in vitro [1]; HepG2 cells)	AC50 [2]	viability at 48 h, 1 µM (in vitro [3])	viability at 48 h, 3 µM (in vitro [3])	also measured
c1ccc(CNc2nc(-c3ccccn3)nc3ccccc23)cc1 [MLS001165148-01]	10.9 µM	5.31 µM	93%	87%	
CCCN(CCC)c1nc(-c2ccccn2)nc2ccccc12 [MLS001165172-01]	9.68 µM	5.31 µM	112%	90%	activity at 1 µM ([4]; column 11, read-out: Pb-Luc (P. berghei liver stage), % of control, lower concentration, first repeat): 92%; activity at 1 µM ([4]; column 12, read-out: Pb-Luc (P. berghei liver stage), % of control, lower concentration, second repeat): 102%; activity at 3 µM ([4]; column 8, read-out: Pb-Luc (P. berghei liver stage), % of control, higher concentration, first repeat): 8%; activity at 3 µM ([4]; column 9, read-out: Pb-Luc (P. berghei liver stage), % of control, higher concentration, second repeat): 7%
O=C1c2ccccc2C(=O)c2[nH]c(=O)[nH]c21 [MLS001173438-01]	10.9 µM	5.96 µM			Max Resp (signal direction of the dose response) ([4]; Method 1, Decrease = decreasing P. berghei viability with dose, Increase = increasing signal, Inactive = no dose response): Decrease; AC50 ([4]; Method 1, Hill fit, 50% of maximum activity response, read-out: AC50): 1.58 µM; AC50 ([4]; Method 1, log10 of molar AC50 from Hill fit, read-out: Log AC50 (converted)): 1.58 µM; viability at 66 h (in vitro [3]): 95.7%
CN(C)CCCn1cnc2c(c1=N)C(c1ccccc1)c1ccc3ccccc3c1O2 (stereo not drawn) [MLS001216375-01]	30.6 µM	3.76 µM	111%	110%	
CCN1CCN(c2ccc(Nc3ccnc4ccccc34)cc2)CC1 [MLS001360577-01]	17.2 µM	1.06 µM	95%	91%	
C/C(=N\NC(=O)c1ccccc1OCc1ccc(F)cc1)c1ccccn1 [MLS002162875-01]	17.2 µM	4.73 µM	105%	79%	
O=S(=O)(Nc1cc2nc3ccccc3nc2n1Cc1ccccc1)c1ccc(Cl)cc1 [MLS002583111-01]	19.3 µM	1.19 µM			viability at 66 h (in vitro [3]): 103%
CCOC(=O)c1ccc(Nc2nc3nonc3nc2Nc2cccc(C)c2C)cc1 [NCGC00117662-01]	10.9 µM	8.41 µM			
Fc1ccc(Nc2nc3nonc3nc2Nc2cccc(C(F)(F)F)c2)cc1 [NCGC00117664-01]	4.32 µM	1.68 µM			
Oc1c(C(Nc2ccccn2)c2ccccc2F)ccc2cccnc12 (stereo not drawn) [NCGC00135751-01]	27.3 µM	9.44 µM			
Cc1cc(Nc2sc(C(=O)c3ccc(F)cc3)c(N)c2C(=O)Nc2ccc(F)cc2)ccc1Cl [NCGC00138324-01]	2.73 µM	0.75 µM			
COc1ccc(Nc2cc(O)c3ncccc3c2)cc1 [NCGC00183797-01]	19.3 µM	0.75 µM	89%	73%	
Oc1cc(Nc2ccc(N3CCCCC3)cc2)cc2cccnc12 [NCGC00183804-01]	17.2 µM	0.841 µM	105%	94%	
COc1ccc2[nH]c(C[C@@H]3C[C@@H](C(C)C)[C@H](CNCc4ccccn4)C=C3C)nc2c1 [NCGC00391900-01]	7.03 µM	0.769 µM			
COc1ccccc1CNC[C@@H]1C=C(C)[C@H](Cc2nc3cccc(C)c3[nH]2)C[C@H]1C(C)C [NCGC00392078-01]	44.4 µM	9.68 µM			
COc1ccccc1N1CCN(C[C@@H]2C=C(C)[C@H](Cc3nnc(-c4cncn4C)o3)C[C@H]2C(C)C)CC1 [NCGC00392622-01]	24.3 µM	10.6 µM			
Cc1nn(-c2ccc(C(C)C)cc2)c(C)c1[C@@H]1C=C[C@@H](NCc2ccccc2)C1 [NCGC00392636-01]	44.4 µM	21.7 µM			
c1csc(-c2ccnc(N[C@H]3CO[C@H]4[C@@H]3OC[C@@H]4NCC3CCCCC3)n2)c1 [NCGC00395181-01]	49.8 µM	12.2 µM			
CN(C)CCNC(=O)c1nc2nc(-c3ccccc3)c(-c3cccc(F)c3)cc2n1C [NCGC00417874-01]	31.4 µM	19.3 µM			
O=C1NC2(CCCN(Cc3ccccn3)C2)COc2ccccc21 (stereo not drawn) [NCGC00477540-01]		4.85 µM			CC50 at 48 h (in vitro [1]; hepg2): 3.14 µM
